Data: patent publication US7045343B2, “Sterilization indicator test packs” (3M Innovative Properties Company, priority 1998, dated 2006)

Test system: Bacillus stearothermophilus spores
Experiment: Spore outgrowth (color change) of indicators after hydrogen peroxide plasma sterilization
Assay type: cell-based
Conditions: 1–22 min diffusion
Method in brief: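 Indicators with a TYVEK closure held spores coated with various chemicals and were exposed to hydrogen peroxide plasma at 45–55 °C: 6–7 mg/ml chamber peroxide, diffusing 1–22 min at 6–10 Torr. Enzyme fluorescence was read hourly for 5 h at 60 °C. Growth was scored visually as a purple-to-yellow change after 168 h.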

## Decaglyceryl Monostearate
Example 7, 50 mg/ml coating
  NO. GROWTH POSITIVE 168 HR: 59

## Decaglyceryl Decaoleate
Example 6, 10 mg/ml coating
  NO. GROWTH POSITIVE 168 HR: 49
Example 7, 10 mg/ml coating
  NO. GROWTH POSITIVE 168 HR: 49
Example 9, 5 mg/ml coating
  NO. GROWTH POSITIVE 168 HR: 35
Example 9, 7.5 mg/ml coating
  NO. GROWTH POSITIVE 168 HR: 35
Example 9, 10 mg/ml coating
  NO. GROWTH POSITIVE 168 HR: 49
Example 9, 50 mg/ml coating
  NO. GROWTH POSITIVE 168 HR: 21
Example 9, 100 mg/ml coating
  NO. GROWTH POSITIVE 168 HR: 30
